Patent US10167284B2, “Spirocyclic compounds as agonists of the muscarinic M1 receptor and/or M4 receptor” (HEPTARES THERAPEUTICS LIMITED, priority 2015, dated 2019)

How the values were obtained:
[1] = target: T1, human muscarinic M1 receptor (Homo sapiens, UniProt P11229); assay: Alphascreen Surefire phospho-ERK1/2 functional assay, M1; type: cell-based; conditions: for M1 % Emax cf. ACh / EC50: CHO cells stably expressing human M1; for M1 % Emax cf. ACh / Emax: Emax relative to ACh; for EC50: phospho-ERK1/2, read-out: pEC50 M1 (converted); for Emax: CHO, read-out: M1 % Emax cf. ACh, CHO cells stably expressing human M1
T1 construct: expressed in transfected cells
T1 sequence (P11229 1-460): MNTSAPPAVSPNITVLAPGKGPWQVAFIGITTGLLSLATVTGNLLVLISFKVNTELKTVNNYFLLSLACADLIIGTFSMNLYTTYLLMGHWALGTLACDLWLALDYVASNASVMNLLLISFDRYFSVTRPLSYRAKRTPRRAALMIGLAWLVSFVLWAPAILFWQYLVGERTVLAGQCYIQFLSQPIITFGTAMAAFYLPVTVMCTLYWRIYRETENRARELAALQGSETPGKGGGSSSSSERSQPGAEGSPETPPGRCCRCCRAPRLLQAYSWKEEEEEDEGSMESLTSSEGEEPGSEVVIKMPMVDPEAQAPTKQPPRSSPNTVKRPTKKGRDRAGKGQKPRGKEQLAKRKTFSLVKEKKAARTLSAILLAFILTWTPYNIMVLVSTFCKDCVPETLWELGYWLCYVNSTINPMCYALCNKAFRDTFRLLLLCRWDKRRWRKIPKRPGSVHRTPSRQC
Procedure: (§1) CHO cells stably expressing the human muscarinic M1, M2, M3 or M4 receptor were plated (25K/well) onto 96-well tissue culture plates in MEM-alpha+10% dialysed FBS. Once adhered, cells were serum-starved overnight. Agonist stimulation was performed by the addition of 5 μL agonist to the cells for 5 min (37° C.). Media was removed and 50 μL of lysis buffer added. After 15 min, a 4 μL sample was transferred to 384-well plate and 7 μL of detection mixture added. Plates were incubated for 2 h with gentle agitation in the dark and then read on a PHERAstar plate reader.
(§2) pEC50 and Emax figures were calculated from the resulting data for each receptor subtype.

[2] = target: T2, human muscarinic M4 receptor (Homo sapiens, UniProt P08173); assay: Alphascreen Surefire phospho-ERK1/2 functional assay, M4; type: cell-based; conditions: for M4 % Emax cf. ACh / EC50: CHO cells stably expressing human M4; for M4 % Emax cf. ACh / Emax: Emax relative to ACh; for EC50: phospho-ERK1/2, read-out: pEC50 M4 (converted); for Emax: CHO, read-out: M4 % Emax cf. ACh, CHO cells stably expressing human M4
T2 construct: expressed in transfected cells
T2 sequence (P08173 1-479): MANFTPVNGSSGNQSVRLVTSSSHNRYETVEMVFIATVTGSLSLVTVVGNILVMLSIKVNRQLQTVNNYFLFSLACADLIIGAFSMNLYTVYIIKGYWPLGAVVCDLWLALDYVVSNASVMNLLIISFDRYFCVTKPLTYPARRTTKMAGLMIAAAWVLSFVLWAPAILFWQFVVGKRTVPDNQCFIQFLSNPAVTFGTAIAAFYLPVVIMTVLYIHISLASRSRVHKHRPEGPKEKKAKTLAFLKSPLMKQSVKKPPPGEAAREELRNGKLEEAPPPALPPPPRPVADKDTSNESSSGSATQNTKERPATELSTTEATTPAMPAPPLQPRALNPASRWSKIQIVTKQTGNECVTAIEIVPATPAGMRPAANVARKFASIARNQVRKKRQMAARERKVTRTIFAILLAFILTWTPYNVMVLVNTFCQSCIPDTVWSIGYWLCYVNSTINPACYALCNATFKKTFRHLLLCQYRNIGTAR
Procedure: as §1, §2

## CCC1NC(=O)CC12CCN(C1CC3(CCN(C(=O)OC)C3)C1)CC2 (single isomer, unassigned) [3-4 Isomer 1]
[1]
  M1 % Emax cf. ACh: (35) %
  EC50: 3160 nM
[2]
  M4 % Emax cf. ACh: (30) %
  EC50: 316 nM

## CCC1NC(=O)CC12CCN(C1CC3(CCN(C(=O)OC)C3)C1)CC2 (single isomer, unassigned) [3-4 Isomer 2]
[1]
  M1 % Emax cf. ACh: (71) %
  EC50: 2000 nM
[2]
  M4 % Emax cf. ACh: (36) %
  EC50: 200 nM

## CCOC(=O)N1CCC2(CC(N3CCC4(CC3)CNC(=O)O4)C2)C1 (single isomer, unassigned) [4-3 Isomer 1]
[1]
  M1 % Emax cf. ACh: (91) %
  EC50: 251 nM
[2]
  M4 % Emax cf. ACh: (37) %
  EC50: 316 nM

## CC(C)OC(=O)N1CCC2(CC(N3CCC4(CC3)CNC(=O)O4)C2)C1 (single isomer, unassigned) [4-4 Isomer 2]
[1]
  EC50: 631 nM
  Emax: 52%
[2]
  EC50: 398 nM
  Emax: 24%

## CCOC(=O)N1CCC2(CC(N3CCC4(CC3)CN(C(C)C)C(=O)O4)C2)C1 (single isomer, unassigned) [4-8 Isomer 2]
[1]
  EC50: 1260 nM
  Emax: 63%
[2]
  EC50: 398 nM
  Emax: 58%

## CCOC(=O)N1CCC2(CC(N3CCC4(CC3)CN(CC(C)C)C(=O)O4)C2)C1 (single isomer, unassigned) [4-9 Isomer 2]
[1]
  EC50: 1000 nM
  Emax: 104%
[2]
  EC50: 631 nM
  Emax: 76%

## CCOC(=O)N1CCC2(CC(N3CCC4(CC3)OC(=O)NC4CC)C2)C1 (single isomer, unassigned) [4-12 Isomer 2]
[1]
  M1 % Emax cf. ACh: (0) %
  EC50: > 20000 nM
[2]
  M4 % Emax cf. ACh: (1) %
  EC50: > 20000 nM

## CCOC(=O)N1CCC2(CC(N3CCC4(CC3)OC(=O)NC4C3CCC3)C2)C1 (single isomer, unassigned) [4-15 Isomer 1 (racemic)]
[1]
  EC50: 501 nM
  Emax: 85%
[2]
  EC50: 158 nM
  Emax: 87%

## CCOC(=O)N1CCC2(CC(N3CCC4(CC3)OC(=O)NC4Cc3ccccn3)C2)C1 (single isomer, unassigned) [4-19 Isomer 2 (racemic)]
[1]
  EC50: 200 nM
  Emax: 98%
[2]
  EC50: 794 nM
  Emax: 72%

## CCOC(=O)N1CCC2(CC(N3CCC4(CC3)OC(=O)N(C)C4CC)C2)C1 (single isomer, unassigned) [4-20 Isomer 1]
[1]
  M1 % Emax cf. ACh: (57) %
  EC50: 2000 nM
[2]
  M4 % Emax cf. ACh: (42) %
  EC50: 501 nM

## CCOC(=O)N1CCC2(CC(N3CCC4(CC3)OC(=O)N(C)C4CC)C2)C1 (single isomer, unassigned) [4-20 Isomer 2]
[1]
  M1 % Emax cf. ACh: (16) %
  EC50: > 20000 nM
[2]
  M4 % Emax cf. ACh: (9) %
  EC50: > 20000 nM

## CCC1N(CC)C(=O)OC12CCN(C1CC3(CCN(C(=O)OC)C3)C1)CC2 (single isomer, unassigned) [4-21 Isomer 2 (racemic)]
[1]
  EC50: 794 nM
  Emax: 77%
[2]
  EC50: 200 nM
  Emax: 36%

## CCOC(=O)N1CCC2(CC(N3CCC4(CC3)OC(=O)N(CC)C4CC)C2)C1 (single isomer, unassigned) [4-22 Isomer 1]
[1]
  M1 % Emax cf. ACh: (13) %
  EC50: > 20000 nM
[2]
  M4 % Emax cf. ACh: (18) %
  EC50: > 20000 nM

## CCOC(=O)N1CCC2(CC(N3CCC4(CC3)OC(=O)N(CC)C4CC)C2)C1 (single isomer, unassigned) [4-22 Isomer 2]
[1]
  M1 % Emax cf. ACh: (1) %
  EC50: > 20000 nM
[2]
  M4 % Emax cf. ACh: (2) %
  EC50: > 20000 nM

## CCCN1C(=O)OC2(CCN(C3CC4(CCN(C(=O)OCC)C4)C3)CC2)C1CC (single isomer, unassigned) [4-23 Isomer 1]
[1]
  M1 % Emax cf. ACh: (9) %
  EC50: > 20000 nM
[2]
  M4 % Emax cf. ACh: (33) %
  EC50: 501 nM

## CCCN1C(=O)OC2(CCN(C3CC4(CCN(C(=O)OCC)C4)C3)CC2)C1CC (single isomer, unassigned) [4-23 Isomer 2]
[1]
  M1 % Emax cf. ACh: (5) %
  EC50: > 20000 nM
[2]
  M4 % Emax cf. ACh: (3) %
  EC50: > 20000 nM

## CCOC(=O)N1CCC2(CC(N3CCC4(CC3)OC(=O)N(CC3CC3)C4CC)C2)C1 (single isomer, unassigned) [4-25 Isomer 2 (racemic)]
[1]
  EC50: 794 nM
  Emax: 73%
[2]
  EC50: 126 nM
  Emax: 69%

## CCOC(=O)N1CCC2(CC(N3CCC4(CC3)OC(=O)NC4(C)C)C2)C1 (single isomer, unassigned) [4-27 Isomer 1]
[1]
  M1 % Emax cf. ACh: (65) %
  EC50: 10000 nM
[2]
  M4 % Emax cf. ACh: (59) %
  EC50: 251 nM

## CCOC(=O)N1CCC2(CC(N3CCC4(CC3)OC(=O)NC43CC(F)(F)C3)C2)C1 (single isomer, unassigned) [4-30 Isomer 1]
[1]
  EC50: 1260 nM
  Emax: 49%
[2]
  EC50: 158 nM
  Emax: 63%

## CCOC(=O)N1CCC2(CC(N3CCC4(CC3)OC(=O)N(CC)C4(C)C)C2)C1 (single isomer, unassigned) [4-35 Isomer 2]
[1]
  EC50: 1000 nM
  Emax: 57%
[2]
  EC50: 31.6 nM
  Emax: 108%

## CCCN1C(=O)OC2(CCN(C3CC4(CCN(C(=O)OCC)C4)C3)CC2)C1(C)C (single isomer, unassigned) [4-37 Isomer 2]
[1]
  M1 % Emax cf. ACh: (29) %
  EC50: 794 nM
[2]
  M4 % Emax cf. ACh: (13) %
  EC50: > 20000 nM

## CCOC(=O)N1CCC2(CC(N3CCC4(CC3)OC(=O)N(CC#N)C4(C)C)C2)C1 (single isomer, unassigned) [4-42 Isomer 2]
[1]
  EC50: > 20000 nM
  Emax: 16%
[2]
  EC50: 200 nM
  Emax: 52%

## COC(=O)N1CCC2(CC(N3CCC4(CC3)OC(=O)N3CCCC34)C2)C1 (single isomer, unassigned) [4-45 Isomer 2]
[1]
  EC50: 1000 nM
  Emax: 59%
[2]
  EC50: 316 nM
  Emax: 36%

## CCOC(=O)N1CCC2(CC(N3CCC4(CC3)CC(=O)NN4C(C)C)C2)C1 (single isomer, unassigned) [6-5 Isomer 2]
[1]
  EC50: 2000 nM
  Emax: 56%
[2]
  EC50: > 20000 nM
  Emax: 20%

## CCOC(=O)N1CCC2(CC(N3CCC4(CC3)CC(=O)NN4Cc3ccccc3)C2)C1 (single isomer, unassigned) [6-6 Isomer 1]
[1]
  M1 % Emax cf. ACh: (36) %
  EC50: 501 nM
[2]
  M4 % Emax cf. ACh: (10) %
  EC50: > 20000 nM

## CCCN1N(C)C(=O)CC12CCN(C1CC3(CCN(C(=O)OCC)C3)C1)CC2 (single isomer, unassigned) [6-10 Isomer 2]
[1]
  EC50: 1260 nM
  Emax: 90%
[2]
  EC50: 39.8 nM
  Emax: 109%

## CCOC(=O)N1CC2(CC(N3CCC4(CC3)CNC(=O)C4)C2)C1 [Example 1-1, ethyl 6-(3-oxo-2,8-diazaspiro[4.5]dec-8-yl)-2-azaspiro[3.3]heptane-2-carboxylate]
[1]
  EC50: 316 nM
  Emax: 107%
[2]
  EC50: > 20000 nM
  Emax: 66%

## CCOC(=O)N1CC2(CC(N3CCC4(CC3)OC(=O)NC4(C)C)C2)C1 [Example 2-3, ethyl 6-(4,4-dimethyl-2-oxo-1-oxa-3,8-diazaspiro[4.5]decan-8-yl)-2-azaspiro[3.3]heptane-2-carboxylate]
[1]
  EC50: 3160 nM
  Emax: 92%
[2]
  EC50: 1000 nM
  Emax: 73%

## CCOC(=O)N1CC2(CC(N3CCC4(CC3)OC(=O)N3CCCC34)C2)C1 (centres unmarked) [Example 2-5, ethyl 6-(3′-oxotetrahydro-1H-spiro[piperidine-4,1′-pyrrolo[1,2-c][1,3]oxazol]-1-yl)-2-azaspiro[3.3]heptane-2-carboxylate]
[1]
  EC50: 1000 nM
  Emax: 28%
[2]
  EC50: 126 nM
  Emax: 34%
